Holding throughout (test): NCI-60 cell line screen, 48 h
In test [1] the test system is RXF 393 renal.
Test [2] has as its system LOX IMVI melanoma.
Test [3] deals with OVCAR-8 ovarian.
The test system of test [4] is SF-268 CNS.
Test [5] deals with OVCAR-4 ovarian.
Test [6] relates to COLO 205 colon.
Test [7] concerns K-562 leukemia.
Test [8] deals with SK-MEL-5 melanoma.
Test [9] relates to KM12 colon.
The subject of test [10] is NCI-H522 lung.

Several values for one entry are separate records, joined by “and”; a condition that tells them apart may be missing. Identical values can stand only once.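 Interpolation was linear, between the two tested concentrations surrounding the appropriate level; five concentrations were tested over 48 hours in 96-well plates. At the GI50, growth is halved. The concentration for full growth arrest is given as TGI.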

Take `OCCCc1cnco1`: the TGI in test [1], in test [2], in [3], in test [4], in test [5] and in test [6] was > 100 µM each time. Also, the TGI in test [7], in test [8] and in test [9] was > 100 µM throughout.

Regarding `CC(C)(CN1CCCCC1)C(=O)CC(SCCN)c1ccc(Cl)cc1` (stereo not given), the TGI in test [1] was 5.94 µM; in test [2], 4.85 µM; in [3] it was 5.45 µM; in test [4] it was 9.36 µM; in test [5], 10.1 µM; in test [10], 4.8 µM. In addition, the TGI in test [6] is 3.24 µM; in test [7] it was > 100 µM; in test [8], 3.25 µM; in [9], 5.23 µM.

Take `O=[N+]([O-])c1ccc(/C(Cl)=C/c2ccc(/C=C(\Cl)c3ccc([N+](=O)[O-])cc3[N+](=O)[O-])cc2)c([N+](=O)[O-])c1`: the TGI in test [1], in test [2], in [3], in [4], in [5] and in [10] was > 100 µM in each case. Moreover, the TGI in test [6] and in test [8] was > 100 µM in each case.

For `C#CCn1c(=O)c2cccnc2n(CC#C)c1=O`, the TGI in [1], in test [2], in test [4], in test [5], in test [10] and in test [6] was > 100 µM in each case. In addition, the TGI in [8] and in test [9] was > 100 µM in each case.

As for `C=C1C(=O)c2cc3c(cc2C(c2cc(OC)c(OC)c(OC)c2)[C@@H]1C(=O)O)OCO3` (stereo not given in full), the TGI in [1], in test [2], in [3], in test [10], in test [6] and in [7] was > 100 µM in each case. The TGI in test [8] and in [9] was > 100 µM in each case.

Take `O=c1nc(N2CCCC2)nc(N2CCCC2)s1`: the TGI in test [1], in [2], in test [3], in test [4], in [5] and in [10] was > 100 µM each time. Besides, the TGI in test [7], in [8] and in [9] was > 100 µM throughout.

For the molecule `O=C(Nc1ccc(I)cc1)c1cccc([N+](=O)[O-])c1O`, the GI50 in [1] was 2.49 µM; in test [2], 3.28 µM; in test [3], 4.37 µM; in [4], 4.15 µM; in test [5], 2.61 µM; in test [10] it was 2.61 µM. For the same molecule, the GI50 in test [6] is 3.66 µM; in [7], 2.64 µM; in test [9], 4.05 µM. The TGI in test [1] is 9.09 µM; in [2], > 100 µM; in [3], > 100 µM; in test [4], > 100 µM; in test [5] it was 25 µM; in test [10] it was 31.1 µM. In addition, the TGI in test [6] is 34.6 µM; in test [7] it was > 100 µM; in test [9], > 100 µM.

With `C=C1C(=O)OC2CC1C(OC(C)=O)C/C(C)=C/CC/C(C)=C\CCC2(C)O` (stereo not given), the TGI was 14 µM in [1]; 14.6 µM and 12.6 µM in test [3]; 22.9 µM and 20.3 µM in test [4]; 21 µM and 19.2 µM in [5]; 3.16 µM and 3.13 µM in [10]; 14.4 µM and > 100 µM in [6]. The TGI was 24 µM and 10.8 µM in [8]; 32.3 µM and 19.4 µM in [9]. Moreover, the GI50 in test [8] was 6.82 µM and 2.88 µM; in test [9] it was 11.6 µM and 5.11 µM.

`CCc1nc2ccccc2c(=O)n1/N=C(\N=Nc1ccc(Cl)cc1)c1ccccc1`: the TGI in test [1] was > 75.8 µM; in test [2] it was 40.5 µM; in test [3], > 100 µM; in test [4], 95.3 µM; in test [5], 75.6 µM; in test [10] it was > 69.3 µM. In addition, the figures for the TGI in [6], in test [8] and in test [9] were > 100 µM, 44.6 µM and 34.7 µM, respectively.

On to `CCOC(=O)/C(=C/c1ccccc1Br)P(=O)(OCC)OCC`, for which the TGI in [1] worked out at 2.44 µM; in [2], 3.09 µM; in test [3], 8.09 µM; in test [4], 10.5 µM; in [5] it was 4.2 µM; in [10], 2.32 µM. Besides, the TGI in [7] stood at 2 µM; in test [8], 3.51 µM; in test [9] it was 4.52 µM.

Consider `COC(=O)c1nc(C(=O)OC)c2c([nH]c3ccccc32)c1C(=O)OC`, for which the TGI in test [1] is > 100 µM; in [2], > 100 µM; in [3] it was > 100 µM; in test [6] it was > 100 µM; in [8], 95.1 µM; in test [9], > 100 µM.

Regarding `NC1=NC2=C(CCCC2)C(c2cccs2)S1` (stereo not given), the TGI in [1], in [3], in test [4], in test [5], in test [10] and in test [6] was > 100 µM in each case. Further, the TGI in test [7], in test [8] and in test [9] was > 100 µM in each case.

As for `COC1=CC(=O)OC(/C=C(C)/C=C/C2=C(C)CCCC2(C)C)C1` (stereo not given), the TGI in test [1], in test [3], in test [4], in test [5], in test [10] and in test [7] was > 100 µM in each case. Also, the TGI in test [8] and in test [9] was > 100 µM in each case.

As to `Fc1ccc(C2SCc3nc4ccccc4n32)cc1F` (stereo not given), the TGI in test [1] is 80 µM; in [3] it was > 100 µM; in test [4], > 100 µM; in test [5], 98.9 µM; in test [10], 61.7 µM; in test [6] it was 90.3 µM. The TGI in test [7] is > 100 µM; in [8] it was 34.3 µM; in test [9], > 100 µM.
